In EP0347802B1, “Neurokinin A antagonists” (MERRELL DOW PHARMACEUTICALS INC., priority 1988, dated 1989):
Residues, ends and D or L forms follow the SMILES beside them.

Columns and labels:
NKA receptor = target: T1, NKA receptor (Mesocricetus auratus, UniProt P51144); experiment: Neurokinin A-induced phosphatidylinositol (PI) turnover in hamster urinary bladder; format: cell-based; settings: for shift of NKA dose-response curve (PI turnover): one experiment in triplicate; for partial agonist activity: test compound alone
T1 construct: from tissue; host or cells: hamster urinary bladder, chopped tissue
T1 sequence (P51144 1-384): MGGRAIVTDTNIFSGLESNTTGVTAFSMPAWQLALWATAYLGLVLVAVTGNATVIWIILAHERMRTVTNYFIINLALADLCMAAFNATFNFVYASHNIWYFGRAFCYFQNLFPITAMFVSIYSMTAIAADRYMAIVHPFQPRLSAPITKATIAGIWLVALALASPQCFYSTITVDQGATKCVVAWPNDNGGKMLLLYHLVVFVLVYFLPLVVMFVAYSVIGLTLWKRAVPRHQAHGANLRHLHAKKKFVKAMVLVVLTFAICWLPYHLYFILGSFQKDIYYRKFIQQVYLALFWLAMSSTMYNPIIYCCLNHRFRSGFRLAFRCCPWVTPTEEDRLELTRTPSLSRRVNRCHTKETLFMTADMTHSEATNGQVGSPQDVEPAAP
Text: The abscissa (x-axis) logarithmically indicates the concentration in nanomoles of agonist or antagonist of the neurokinin A (NKA) receptor. […] The abscissa (x-axis) logarithmically indicates the concentration in nanomolar (nM) of agonist or antagonist of the NKA receptor. […] The abscissa (x-axis) logarithmically indicates the concentration in nanomolar (nM) of agonist or antagonist of the NKA receptor. […])]Leu-NH2 up to 100»M had only 5% partial agonist activity, and […] had only 12% partial agonist activity. […] Values are MEAN ± S.E.M. from one experiment in triplicate. Urinary bladders from several hamsters were pooled and chopped at 350 »m with a tissue chopper. The chopped tissue was then incubated in 37°C Krebs-Hepes buffer with fresh buffer changes every 15 minutes for 30 minutes. The tissue was then incubated in this buffer containing 100-200 »Ci of 3H-inositol at 37°C. The tissue was then washed and incubated for another 30 minutes in Krebs-Hepes (containing 10 mM Li+) at 37°C with fresh buffer change every 15 minutes. Portions of the tissue mass (approximately 10-20 mg per assay tube) were then placed in Li+ buffer, test compound was then added in 25 »l, and then various concentrations of neurokinin A were added in 25 »l in a final volume of 250 »l. […] Test compound was also evaluated alone at the indicated concentrations to test for agonist activity. After 30 minutes at room temperature, the phosphatidylinositol turnover was terminated by the addition of 940 »l chloroform:methanol (1:2), followed by 310 »l chloroform, followed by 310 »l water. Each tube was then vortexed for 15 seconds and then centrifuged at 3000 rpm for 10 minutes to separate the phases. 900 »l of the top (aqueous) phase was then loaded onto a 0.5 ml Biorad AG-1X8 (formate) ion exchange column. 50 »l of the bottom phase (chloroform) was withdrawn from each tube and placed in a counting vial, dried, and counted in scintillation fluid. The material on the columns was washed in order with: • 1) 10 ml of water • 2) 5 ml of 5 mM disodium tetraborate/60 mM sodium formate • 3) 10 ml of 1 M ammonium formate in 0.1 M formic acid The final (third) wash was collected and one ml was mixed with 6 ml of ACS scintillant and counted. The ratio of these counts (total inositol phosphates) to the corresponding organic phase counts was then calculated for each sample. The ratios in the presence of test compound and/or standards were then compared to the ratios for control tubes (i.e., no stimulating agonist). Dose-response curves were constructed and the abilities of test compounds to stimulate or to inhibit neurokinin A-induced phosphatidylinositol turnover were determined by graphical analysis or with the aid of a computer program and are illustrated in Figures 2 and 3.

hamster urinary bladder = experiment: Hamster urinary bladder contraction preparation; set-up: species or system male golden Syrian hamsters; settings: for effect on NKA-mediated contractile activity: NKA with 10 »M of test compound, one experiment in triplicate; for contraction produced by test compound alone: up to concentrations of 1 »M, three separate hamster bladder tissues each, thiorphan 10 »M
Text: The abscissa (x-axis) logarithmically indicates the concentration in nanomoles of agonist or antagonist of the neurokinin A (NKA) receptor. The ordinate (y-axis) indicates the observed specific binding for each tested agonist or antagonist measured as a percentage of maximum specific binding. [formula] Agonists tested were NKA and fragments of NKA consisting of the third to tenth (NKA(3-10)) amino acids and the fourth to tenth (NKA(4-10)) amino acids. Values are MEAN ± S.E.M. of 6 - 12 experiments. […] The abscissa (x-axis) logarithmically indicates the concentration in nanomolar (nM) of agonist or antagonist of the NKA receptor. […] The abscissa (x-axis) logarithmically indicates the concentration in nanomolar (nM) of agonist or antagonist of the NKA receptor. […] H-Asp-Ser-Phe-Val-Gly-Leuψ[CH₂N(CH₃)]Leu-NH₂ up to 100»M had only 5% partial agonist activity, and H-Asp-Ser-Phe-Val-Gly-Leuψ[CH₂NH]Leu-NH₂ had only 12% partial agonist activity. […] The abscissa (x-axis) logarithmically indicates the concentration in nanomolar (nM) of NKA or NKA with 10 »M of H-Asp-Ser-Phe-Val-Gly-Leuψ[CH₂NH]Leu-NH₂. […] The abscissa (x-axis) logarithmically indicates the concentration in nanomolar (nM) of NKA or NKA with 10 »M of H-Asp-Ser-Phe-Val-Gly-Leuψ[CH₂N(CH₃)]Leu-NH₂. Values are MEAN ± S.E.M. from one experiment in triplicate.
Half-strips of urinary bladders from male golden Syrian hamsters (75 - 100 g) were suspended in Tyrode's buffer at 31°C and with 1 gram resting tension as described by Dion et al. (Life Sciences 41: 2269 - 2278, 1987). The enkephalinase inhibitor thiorphan was added to the buffer at 10 »M 15 minutes prior to each test compound addition. Cumulative NKA dose-response curves were constructed first in the absence and then in the presence of test compound. The test compounds were added cumulatively as well to ascertain whether or not they had any contractile effects themselves. Any test compound effect that was observed was allowed to plateau before the next cumulative concentration was added. Under these conditions, the EC₅₀ for NKA contractile effects was generally 10 nM, in good agreement with literature values. Contractile data are expressed as grams of tension developed over and above the resting tension. […] Figures 4 and 5 illustrate the contractile force as a function of NKA concentration in the absence and presence of test compound.

CC(C)C[C@@H](CN(C)[C@@H](CC(C)C)C(N)=O)NC(=O)CNC(=O)[C@@H](NC(=O)[C@H](Cc1ccccc1)NC(=O)[C@H](CO)NC(=O)[C@@H](N)CC(=O)O)C(C)C [H-Asp-Ser-Phe-Val-Gly-Leuψ[CH₂N(CH₃)]Leu-NH₂] (HELM PEPTIDE1{D.S.F.V.G.[CC(C)C[C@@H](CN(C)[C@@H](CC(C)C)C(N)=O)N[*:1]]}$$$$V2.0)
shift of NKA dose-response curve (PI turnover) (NKA receptor; 1, 10 and 100 »M test compound): significant rightward shift of NKA dose-response curve in competitive manner
Kb (NKA receptor; Schild plot of NKA dose-response shifts at 1, 10 and 100 »M, read-out: pA2 (converted)): 21.9 nM
slope of the Schild plot (NKA receptor; from NKA dose-response shifts at 1, 10 and 100 »M): -.99
partial agonist activity (NKA receptor; up to 100»M): 5%
effect on NKA-mediated contractile activity (hamster urinary bladder): antagonistic effect
contraction produced by test compound alone (hamster urinary bladder): did not produce any contraction

CC(C)C[C@@H](CN[C@@H](CC(C)C)C(N)=O)NC(=O)CNC(=O)[C@@H](NC(=O)[C@H](Cc1ccccc1)NC(=O)[C@H](CO)NC(=O)[C@@H](N)CC(=O)O)C(C)C [H-Asp-Ser-Phe-Val-Gly-Leuψ[CH₂NH]Leu-NH₂] (HELM PEPTIDE1{D.S.F.V.G.[CC(C)C[C@@H](CN[C@@H](CC(C)C)C(N)=O)N[*:1]]}$$$$V2.0)
shift of NKA dose-response curve (PI turnover) (NKA receptor; 10 »M test compound): significant rightward shift of NKA dose-response curve in competitive manner
partial agonist activity (NKA receptor): 12%
effect on NKA-mediated contractile activity (hamster urinary bladder): antagonistic effect
contraction produced by test compound alone (hamster urinary bladder): did not produce any contraction
